Assay results published in paper PMC6203334 (Medicinal chemistry research : an international journal for …, 2018).

How the values were obtained:
Format in all cases: cell-based
[1] = test system: Leishmania donovani promastigotes; experiment: In vitro antileishmanial assay, promastigotes; conditions: for IC50: read-out: L. donovani promastigotes IC50; for IC90: read-out: L. donovani promastigotes IC90
[2] = test system: Leishmania donovani axenic amastigotes; experiment: In vitro antileishmanial assay, axenic amastigotes; conditions: for IC50: read-out: L. donovani Axenic amastigotes IC50; for IC90: read-out: L. donovani Axenic amastigotes IC90
[3] = test system: Blood stage forms of Trypanosoma brucei brucei; experiment: In vitro antitrypanosomal assay; conditions: NA: not active
[4] = test system: Plasmodium falciparum chloroquine sensitive (D6, Sierra Leone); experiment: In vitro antimalarial assay; conditions: D6, read-out: P. falciparum IC50 (D6)
[5] = test system: Plasmodium falciparum chloroquine resistant (W2, Indo China); experiment: In vitro antimalarial assay; conditions: W2, read-out: P. falciparum IC50 (W2)

| IC50 [1] [nM] | IC90 [1] [nM] | IC50 [2] [nM] | IC90 [2] [nM] | IC50 ([3]; read-out: Trypanosoma brucei IC50) [nM] | IC90 ([3]; read-out: Trypanosoma brucei IC90) [nM] | Structure (SMILES) | T. brucei IC9 ([3]; Table 3) [µM] | IC50 [4] [nM] | IC50 [5] [nM] |
| --- | --- | --- | --- | --- | --- | --- | --- | --- | --- |
| 2040 | 3670 | 15300 | 16900 | – | – | N=C(N)c1ccc(OCCCCCOc2ccc(C(=N)N)cc2)cc1 [Pent, pentamidine] | – | – | – |
| – | – | – | – | 21300 ± 2010 | 59200 ± 5750 | NCCCC(N)(C(=O)O)C(F)F (stereo not shown) [DFMO, difluoromethylornithine] | 59.175 ± 5.748 | – | – |
| – | – | – | – | – | – | CCN(CC)CCCC(C)Nc1ccnc2cc(Cl)ccc12 (stereo not shown) [CQ, chloroquine] | – | 52 | 460 |
| 192 | 312 | 1730 | 2000 | – | – | C[C@@H]1[C@H](O)[C@@H](C)/C=C/C=C/C=C/C=C/C=C/C=C/C=C/[C@H](O[C@@H]2O[C@H](C)[C@@H](O)[C@H](N)[C@@H]2O)C[C@@H]2O[C@](O)(C[C@@H](O)C[C@@H](O)[C@H](O)CC[C@@H](O)C[C@@H](O)CC(=O)O[C@H]1C)C[C@H](O)[C@H]2C(=O)O [Amp B, Amphotericin B] | – | – | – |
